Source: patent publication US8563067B2, “Extended shelf life and bulk transport of perishable organic liquids with low pressure carbon dioxide” (Cornell Research Foundation, Inc., priority 2004, dated 2013)
Read-outs that look alike come from different tables or passages of the source.

Tests used:
[1] = tested on: gram-negative non-lactose fermenting bacteria; assay: Gram-negative non-lactose fermenting bacteria on MacConkey agar, raw milk under CO2 pressure (Example 1); assay type: cell-based; settings: 6.1° C., 4 days
Method: (§1) Raw milk from the T&R Center was monitored for changes in aerobic bacteria, gram-negative bacteria and total Lactobacillus spp. as follows: CO2 pressures of 0 (control), 68, 172, 344, 516 and 689 kPa, at 6.1° C. for 4-days. SPC, gram-negative bacteria and total Lactobacillus spp. were enumerated before (day 0) and after (day 4) treatment. Gram negative bacteria were enumerated on MacConkey Agar (Difco Manual, Becton Dickinson & Co., Sparks, Md.), a selective and differential media which can be used to discriminate between lactose fermenting and non-lactose fermenting gram-negative bacteria. Use of this media allows a one-step method of obtaining estimates of both coliform and non-coliform gram negative bacteria. Coliform bacteria may include species of Escherichia, Klebsiella and Enterobacter, potential pathogens and/or spoilage organisms. Non-coliform gram negative bacteria may include spoilage organisms such as pseudomonads or potential pathogens such as Salmonella spp. or Shigella spp. […]
(§2) For all microbiological assays, milk sample aliquots of 1 ml were used in dilution series. […] Representative and distinctive suspect colonies were gram stained, and confirmed gram positive bacilli colonies were counted as an estimate of total Lactobacillus spp.

coliforms = assay: Total coliforms (Petrifilm) in raw milk under CO2 pressure (Example 1); assay type: cell-based; settings: 689 kPa CO2 pressure, 4° C.
Method: Milk samples were mixed and 5 ml of milk added into the treatment and control vessels. The treatment vessel was connected to the apparatus and the control vessel closed off. Both vessels were placed in the water bath. When the desired temperatures were attained in both treatment and control vessels, CO2 was introduced through the bottom of the treatment vessel until the set pressure was reached. The CO2 pressure was maintained throughout the test period. When the desired time was reached, the CO2 inlet was turned off, the pressure release valve on the outlet line opened, and the pressure released in under one minute. After depressurization, the treatment and control vessels were removed from the water bath and their external surfaces were wiped dry, sanitized with 95% ethanol, detached from the apparatus and transferred into sterile containers for dilution and plating.
The progression of these counts (total, Coliform/E. coli and thermoduric bacteria) in the treatment and control samples was tracked by conducting checks on the total aerobic counts (SPC) on treatment days 4 and 6. Based on the levels of total counts on days 4 and 6, analyses of total coli forms/E. coli and thermoduric bacteria after day 6 were conducted either in 1-day or 2-day intervals. The control sample final count was measured on days 4 and 6.
Initial total, coliform, and thermoduric counts were each determined for control and treated samples. Thermoduric organisms were enumerated by the laboratory pasteurization count (LPC) method described in the Standard Methods for the Examination of Dairy Products (Houghtby et al., 1992). The 3M Petri film count plate (3M Microbiology Products, St. Paul, Minn.) was used to enumerate total coli forms and Escherichia coli in the raw, treated and control milk samples.

[2] = tested on: gram-negative lactose fermenting bacteria; assay: Gram-negative lactose fermenting bacteria on MacConkey agar, raw milk under CO2 pressure (Example 1); assay type: cell-based; settings: 6.1° C., 4 days
Method: as §1, §2

Lactobacillus plantarum = settings: CO2 pressures of 13 MPa, 30° C., 30 minutes (Hong and Pyun, 1999); cited from earlier work
Lactobacillus spp. = settings: 30 and 45 ppm CO2 (Espie and Madden, 1997); cited from earlier work
[3] = tested on: milk microbiota (SPC, aerobic microorganisms); settings: cited from earlier work; for extension in storage life: 30 ppm CO2 (King and Mabbitt, 1982)

O=C=O [CO2, carbon dioxide]
levels of gram-negative non-fermenters compared to untreated controls ([1]; 68 to 689 kPa): reduced at all pressures
decrease of gram-negative non-lactose fermenting bacteria compared to initial counts ([1]; 689 kPa): 0.64 log10 cfu/ml
Coliforms counts, Treated, 4 Days (coliforms; 4 days): 1.0 * 10^2h cfu/ml
Coliforms counts, Treated, 6 Days (coliforms; 6 days): 1.0 * 10^2h cfu/ml
Coliforms counts, Treated, 8 Days (coliforms; 8 days): 9.3 * 10^1h cfu/ml
Coliforms counts, Treated, 9 Days (coliforms; 9 days): 9.0 * 10^1h cfu/ml
levels of gram-negative fermenters compared to untreated controls ([2]; 68 to 689 kPa): reduced at all pressures
decrease of gram-negative lactose fermenting bacteria compared to initial counts ([2]; 689 kPa): 0.80 log10 cfu/ml
reductions in populations of Lactobacillus plantarum (Lactobacillus plantarum): more than 6 logs
effect on the growth of Lactobacillus spp. (Lactobacillus spp.): no effect
SPC lower compared to control milk ([3]; 20-30 pmm dissolved CO2, 4 days at 7° C. (Mabbitt, 1982)): 3 log10 cfu/ml
decrease in bulk raw milk microbiota ([3]; 3997 kPa (or 5800 psi) CO2, ≧40° C., 30 min (Calvo and Bacones, 2001)): 2 log10 cfu/ml
reduction in aerobic microorganisms in whole milk ([3]; 6044 kPa CO2, 45° C., 24 h (Erkman, 2000)): 6 log10 cfu/ml
reduction ([3]; 14598 kPa CO2, 25° C., 5-h (Erkman, 1997)): 8 log10 cfu/ml
reduction of bacterial growth in raw milk ([3]; addition of CO2, storage at 6.7° C. for 48 h (Shipe et al., 1978)): 50%
extension in storage life ([3]; good quality milk (10^3 cfu/ml)): 3 days
extension in storage life ([3]; poor quality milk (10^5 cfu/ml)): 1.2 days
